Measured values taken from patent US6335339B1, “Triazine antiviral compounds” (Scriptgen Pharmaceuticals, Inc., priority 1998, dated 2002).

Test system: HBV
Assay: antiviral assay in 2.2.15 cells producing HBV (virion DNA dot blot)
Assay type: cell-based, Hepatitis B virus
Conditions: for EC50: extra-cellular virus reduced by 50%, 2.2.15 cells, 9 days treatment, read-out: Antiviral EC50
Text: Several cell lines and cell culture assays have been developed to identify potential therapeutics effective against chronic HBV infection. One of these cell lines, 2.2.15, has been used in a standardized assay that has repeatedly proven to be an accurate model of chronic cellular HBV replication and a predictive model of antiviral response for chronic hepadnaviral infection in vivo. 2.2.15 cells contain copies of the complete HBV genome integrated into the cell's genome, and 2.2.15 cells are not susceptible to infection by HBV. (Sells, M. A. et al., J. Virol. 62 (8): 2836-2844 (1988)). These cells express HBV genes producing complete HBV particles capable of infecting chimpanzees (Acs, G. et al., Proc. Natl. Acad. Sci. USA 84 (13): 4641-4644 (1987)). Briefly, 2.2.15 cells are cultured and pretreated with a test compound for about 9 days, at which point the media are harvested and subjected to dot-blot hybridization to detect HBV virion DNA.
The antiviral activity of the compounds of the present invention is measured by the methods described in Korba and Gering, Antiviral Res. 19: 55-70 (1992).
This assay format is well suited to the screening of test compounds for potential antiviral activity. The assay provides a threshold assessment of antiviral activity by measuring (i) the levels of HBV virion release from the cells and (ii) cytotoxicity. Two rows of cells were used for each compound, and 4 rows for the assay controls (two for untreated, and two for positive antiviral control, e.g., 3TC). After incubating in the presence of test compound for 9 days, the media were harvested, transferred to 96-well U-bottom plates, and centrifuged. The supernatants were transferred to tubes for dot blot hybridization analysis of HBV virion DNA. The medium was aspirated off of the toxicity plates and discarded. Toxicity plates were then incubated with neutral red dye (MTT can also be used if preferred), washed with DPBS, developed with an acetic acid-ethanol solution, and assayed in a plate reader.
1. 2.2.15 cells were seeded into 96-well, flat bottom tissue culture plates as described above. Duplicate plates were used for the antiviral treatments for each test compound (up to 8 compounds per pair of plates); after three to four days, cells were confluent and medium was yellow in color; the medium was removed and replaced with 100 μl RP2 24 hours before the beginning of drug treatment.
i) For each compound, a total of 4 concentrations were examined; this required 9 sets of 4 sterile, 1.1 ml minitubes (36 tubes per compound). Into the first tube of each set, sufficient compound was aliquoted to make up 700 μl (for 10-fold dilution series) or 980 μl (for 3.3-fold dilution series) of the highest test concentration; the other tubes were left empty.
i) For a 10-fold dilution series: to the first (compound containing) tube was added 700 μl (175 μl×4). 630 μl (210 μl×3) RP2 culture medium was added to the remaining 3 tubes. The first tube was mixed by pipeting up and down with a pipetman (a multichannel pipetman permits the simultaneous processing of multiple compounds). 70 μl of test compound-containing medium were serially transferred from the first tube to the other 3 tubes, taking care to thoroughly mix each tube before transferring medium;
b) 100 μl of each dilution of every compound was added to each of 6 wells (3 wells per plate) using the configuration listed below as an example. The lowest concentration was added first, and the same tips were used to add the higher concentrations. The untreated cells received 100 μl RP2 per well (untreated cells have to be carried on only one pair of the antiviral assay plates).
c) Treatments were repeated daily for 9 days. For the last day of treatment, and additional 200 μl RP2 were added to each well of the antiviral assay plates after the wells are treated with the test compounds (a total of 300 μl medium per well).
6. […]

| SMILES | EC90 (drug alone, Example 3, read-out: 90% viral reduction (EC90)) [µM] | EC50 [µM] |
| --- | --- | --- |
| CCCCN(CCCC)c1nc(NN=Cc2ccc([N+](=O)[O-])cc2)nc(Nc2ccc([N+](=O)[O-])cc2)n1 [Compound 5] | 1.3 | 0.411 |
| Cc1[nH]c2ccccc2c1C=NNc1nc(Nc2ccccc2)nc(Nc2ccc([N+](=O)[O-])cc2)n1 [Compound 6] | – | 0.3 |
| Cc1ccc(Nc2nc(NN=Cc3ccccc3)nc(Nc3ccccc3)n2)c(C)c1 [Compound 7] | – | 33 |
| CCCCN(CCCC)c1nc(N/N=C/c2cc(I)cc(I)c2O)nc(Nc2ccc([N+](=O)[O-])cc2)n1 [Compound 8] | – | > 100 |
| Cc1ccc(Nc2nc(NN=Cc3ccc(O)cc3O)nc(Nc3ccc([N+](=O)[O-])cc3)n2)cc1C [Compound 9] | – | 0.474 |
| Cc1ccccc1Nc1nc(NN=Cc2ccc(I)cc2)nc(Nc2ccc([N+](=O)[O-])cc2)n1 [Compound 10] | – | > 100 |
| CCCCN(CCCC)c1nc(NN=Cc2ccc3c(c2)OCO3)nc(Nc2ccc([N+](=O)[O-])cc2)n1 [Compound 11] | – | 3.9 |
| Cc1ccc(Nc2nc(NN=Cc3ccccc3O)nc(Nc3ccc([N+](=O)[O-])cc3)n2)cc1C [Compound 12] | – | 0.759 |
| CCN(CC)c1nc(NN=Cc2ccc([N+](=O)[O-])cc2)nc(Nc2ccccc2)n1 [Compound 13] | – | 8.4 |
| COc1c(Br)cc(Br)cc1C=NNc1nc(Nc2ccccc2)nc(N2CCCCC2)n1 [Compound 14] | – | > 100 |
| Cc1ccc(C=NNc2nc(Nc3ccc([N+](=O)[O-])cc3)nc(Nc3ccccc3C)n2)cc1 [Compound 15] | – | 0.5 |
| CCCCN(CCCC)c1nc(NN=Cc2ccc(Cl)cc2)nc(Nc2ccc([N+](=O)[O-])cc2)n1 [Compound 16] | – | 15 |
| CC(C=NNc1nc(Nc2ccc([N+](=O)[O-])cc2)nc(Nc2ccc(C)c(C)c2)n1)=Cc1ccccc1 [Compound 19] | – | > 100 |
| COc1ccc(Nc2nc(NN=Cc3ccc(OC)cc3OC)nc(Nc3ccccc3)n2)cc1 [Compound 20] | – | 4.1 |
| FC(F)(F)c1cccc(Nc2nc(Nc3ccccc3)nc(N3CCOCC3)n2)c1 [Compound 21] | – | 5.6 |
| COc1ccc(Nc2nc(NN=Cc3ccc(Cl)cc3)nc(Nc3ccccc3)n2)cc1 [Compound 22] | – | > 100 |
| CCCCN(CCCC)c1nc(NN=Cc2ccc(OCC)c(O)c2)nc(Nc2ccc([N+](=O)[O-])cc2)n1 [Compound 23] | – | 40 |
| O=[N+]([O-])c1ccc(Nc2nc(NCc3ccccc3)nc(NN=Cc3ccccc3)n2)cc1 [Compound 24] | – | 18 |
| Cc1ccc(Nc2nc(NN=Cc3ccccc3)nc(Nc3ccccc3)n2)cc1 [Compound 25] | – | 1 |

| SMILES | EC90 (drug alone, Example 3, read-out: 90% viral reduction (EC90)) [µM] | EC50 [µM] |
| --- | --- | --- |
| CCN(CC)CCNc1ccc2c3c(cccc13)C(=O)N(Nc1nc(NCc3ccccc3)nc(N(CC)CC)n1)C2=O [Compound 27] | – | > 100 |
| COc1ccc(Br)cc1/C=N/Nc1nc(Nc2cccc([N+](=O)[O-])c2)nc(N2CCOCC2)n1 [Compound 28] | – | > 100 |
| Cc1ccccc1Nc1nc(NN=Cc2ccc3c(c2)OCO3)nc(Nc2ccc([N+](=O)[O-])cc2)n1 [Compound 29] | – | 1.1 |
| Cc1ccc(Nc2nc(NN=Cc3cccc(I)c3)nc(Nc3ccccc3)n2)cc1 [Compound 30] | – | 54 |
| Oc1ccc(I)cc1C=NNc1nc(NCc2ccccc2)nc(Nc2ccccc2)n1 [Compound 33] | – | > 100 |
| Oc1c(Br)cc(Cl)cc1/C=N/Nc1nc(Nc2cccc(C(F)(F)F)c2)nc(N2CCOCC2)n1 [Compound 34] | – | 66 |
| CCCCN(CCCC)c1nc(NN=Cc2cccc(Cl)c2)nc(Nc2ccc([N+](=O)[O-])cc2)n1 [Compound 35] | – | 2.3 |
| Cc1ccc(Nc2nc(NN=Cc3ccc(I)cc3)nc(Nc3ccccc3)n2)c(C)c1 [Compound 113] | – | > 100 |
| O=[N+]([O-])c1ccc(Nc2nc(NN=Cc3ccc(Br)cc3)nc(N3CCCCCC3)n2)cc1 [Compound 117] | – | 4.2 |
| FC(F)(F)c1cccc(Nc2nc(NN=Cc3ccc(Cl)cc3)nc(N3CCOCC3)n2)c1 [Compound 120] | – | > 100 |
| C(=Cc1ccccc1)C=NNc1nc(Nc2ccccc2)nc(Nc2ccccc2)n1 [Compound 125] | – | 3.9 |
| COc1ccc(Nc2nc(NN=Cc3ccc(O)cc3O)nc(Nc3ccccc3)n2)cc1 [Compound 158] | – | 42 |
| Cc1ccc(Nc2nc(NN=Cc3cc(I)ccc3O)nc(Nc3ccccc3)n2)c(C)c1 [Compound 159] | – | 0.498 |
| Oc1ccc(Cl)cc1C=NNc1nc(Nc2ccc3ccccc3c2)nc(N2CCOCC2)n1 [Compound 160] | – | 0.42 |
| COc1c(C=NNc2nc(NCc3ccccc3)nc(Nc3ccccc3)n2)cccc1[N+](=O)[O-] [Compound 162] | – | 0.923 |
| Brc1cccc(C=NNc2nc(Nc3ccccc3)nc(N3CCOCC3)n2)c1 [Compound 163] | – | 0.958 |
| COc1ccc(Nc2nc(NN=Cc3ccc(O)cc3O)nc(N3CCOCC3)n2)cc1 [Compound 164] | – | 0.863 |
| COc1ccc(C=NNc2nc(NCc3ccccc3)nc(Nc3ccccc3)n2)cc1 [Compound 165] | – | 3.8 |
| Ic1cccc(C=NNc2nc(Nc3ccc4ccccc4c3)nc(N3CCOCC3)n2)c1 [Compound 166] | – | 1.4 |

| SMILES | EC90 (drug alone, Example 3, read-out: 90% viral reduction (EC90)) [µM] | EC50 [µM] |
| --- | --- | --- |
| Oc1ccc2ccccc2c1C=NNc1nc(Nc2cccc3ccccc23)nc(N2CCOCC2)n1 [Compound 167] | – | 1.7 |
| COc1c(C=NNc2nc(Nc3ccccc3)nc(Nc3ccccc3)n2)ccc(Br)c1O [Compound 168] | – | 0.7 |
| Oc1ccccc1C=NNc1nc(Nc2ccccc2)nc(N2CCCCC2)n1 [Compound 169] | – | 2.5 |
| COc1cccc(C=NNc2nc(Nc3ccccc3)nc(N3CCCC3)n2)c1O [Compound 170] | – | 4 |
| CCN(CC)c1nc(NN=Cc2c(O)ccc3ccccc23)nc(Nc2ccccc2)n1 [Compound 171] | – | 5 |
| Cc1cccc(C(=O)Oc2ccc(C=NNc3nc(N4CCCCC4)nc(N4CCCCC4)n3)cc2)c1 [Compound 181] | – | 6 |
| CC(=NNc1nc(NCc2ccccc2)nc(Nc2ccccc2)n1)c1ccc([N+](=O)[O-])cc1 [Compound 182] | – | 54 |
| CC(=NNc1nc(Nc2ccccc2)nc(N2CCCC2)n1)c1ccc([N+](=O)[O-])cc1 [Compound 183] | – | 52 |
| Cc1ccc(Nc2nc(NCc3ccccc3)nc(NN=Cc3ccc(F)cc3F)n2)cc1C [Compound 191] | – | > 100 |
| CN(C)c1nc(NCc2ccccc2)nc(NCc2cccs2)n1 [Compound 192] | – | > 100 |
| COc1c(C=NNc2nc(N3CCCC3)nc(N3CCOCC3)n2)cccc1[N+](=O)[O-] [Compound 193] | – | > 100 |
| Cc1ccc(Nc2nc(NCc3ccccc3)nc(Nc3ccc([N+](=O)[O-])cc3)n2)cc1C [Compound 194] | – | > 100 |
| COc1ccccc1C=NNc1nc(NCc2ccccc2)nc(Nc2ccccc2)n1 [Compound 195] | – | > 100 |
| Cc1ccc(Nc2nc(NN=Cc3ccc(Cl)cc3)nc(N3CCOCC3)n2)cc1Cl [Compound 196] | – | > 100 |
| COc1ccc(Nc2nc(NN=Cc3cc(Br)cc(Br)c3O)nc(N3CCOCC3)n2)cc1 [Compound 200] | – | > 100 |
| Fc1cccc(C=NNc2nc(Nc3ccccc3)nc(N3CCCC3)n2)c1 [Compound 201] | – | > 100 |
| CCN(CC)c1nc(Nc2cccc(Br)c2)nc(Nc2cc(C)ccc2C)n1 [Compound 202] | – | > 100 |
| O=C(CSc1nc(SCC(=O)Nc2ccccc2C(F)(F)F)nc(SCC(=O)Nc2ccccc2C(F)(F)F)n1)Nc1ccccc1C(F)(F)F [Compound 212] | – | > 100 |
| C(=Cc1ccccc1)C=NNc1nc(Nc2ccccc2)nc(N2CCCC2)n1 [Compound 213] | – | > 100 |
